Assay: Antiosteoclast activity in mouse BMM cells assessed as reduction of RANKL-induced osteoclasts differentiation by measuring TRAP positive multinucleated cells after 4 days by light microscopy

First: CCc1ccc(Nc2nc3cc(NC(=O)CCCCOc4ccc(/C(N)=N/O)cc4)ccc3o2)cc1
Second: COc1ccc(Nc2nc3cc(NC(=O)CCCCOc4ccc(/C(N)=N/O)cc4)ccc3o2)cc1
The IC50 of the first is 2.3-fold higher: 1310 nM for the first, 580 nM for the second.

Going from `N/C(=N\O)c1ccc(OCCCCC(=O)Nc2ccc3oc(Nc4ccccc4)nc3c2)cc1` to `CC(c1cc2ccccc2s1)N(O)C(N)=O` (racemic) [Leutrol], the IC50 rises from 560 nM to > 20000 nM.

— BindingDB's records for doi:10.1016/j.bmc.2015.09.025 (Sookmyung Women'S University, 2015)
